This note sets out measurements from ChEMBL document CHEMBL5154881, “Discovery of First-in-Class TAK1-MKK3 Protein-Protein Interaction (PPI) Inhibitor (R)-STU104 for the Treatment of Ulcerative Colitis through Modulating TNF-α Production” (J Med Chem, 2022).

Series [1] in a line: Metabolic stability in human liver microsomes assessed as intrinsic clearance at […] measured upto 60 mins in presence of NADPH by HPLC-MS analysis. In kind it is ADME, Microsome. More on the design: dose or concentration left out as unconfirmed. To be noted: 1 h. In general terms: Microsomes from liver hold many membrane-bound enzymes, among them those of drug oxidation.

Another series deals with P-gp (human). In words: Apparent permeability in dog MDCK-MDR1 cells transfected with human P-gp. In kind it is ADME, cell-based, Canis lupus familiaris.
The nature of series [2]: MRT (0 to infinity) in 12 hr starved C57 mouse at 5 mg/kg, iv measured for 0.083 to 24 hrs post-dose by LC-MS-MS analysis. The format is ADME, organism-based. To be noted: in vivo, time 0.083-24 hrs.
The nature of series [3]: AUC (0 to infinity) in 12 hr starved C57 mouse at 30 mg/kg, po measured for 0.083 to 24 hrs post-dose by LC-MS-MS analysis. To be noted: in vivo. More on the design: time upper 24 hrs, dose 30 mg/kg, time lower 0.083 hrs, route po. The format is ADME, organism-based.
The subject of series [4] is Mus musculus. Nature of the series: Anti-ulcerative colitis activity against DSS-induced ulcerative colitis C57BL/6 mouse model assessed as body weight recovery rate at 10 mg/kg, IG via gavage administered for 7 days and measured everyday relative to control. The format is functional. To be noted: time 7 day.
The subject of series [5] is Mus musculus. Nature of the series: Antiinflammatory activity against DSS-induced C57BL/6 mouse model of acute ulcerative colitis assessed as reduction in serum IL-1beta levels administered intragastrically via gavage measured after 7 days by ELISA. In kind it is functional, organism-based. To be noted: dose 1-10 mg/kg, route ig, time 7.0 day, DDE = dose-dependent effect. For orientation: ELISA stands for enzyme-linked immunosorbent assay.

The test system of series [6] is Mus musculus. In words: Anti-ulcerative colitis activity in DSS-induced C57BL/6 mouse ulcerative colitis model assessed as colon length recovery ratio at 3 mg/kg, IG via gavage measured after 7 days relative to control. In kind it is functional. To be noted: time 7 day.
Series [7] concerns Mus musculus. In words: Antiinflammatory activity against DSS-induced C57BL/6 mouse model of acute ulcerative colitis assessed as inhibition ratio of TNF-alpha protein expression at 10 mg/kg, IG via gavage measured after 7 days by ELISA relative to control. In kind it is functional. The arrangement: scale not given: the % may be the effect or the level left. To be noted: time 7 day.

For series [8], the system named is Mus musculus. Nature of the series: Antiinflammatory activity against DSS-induced C57BL/6 mouse model of acute ulcerative colitis assessed as inhibition ratio of IL-6 protein expression at 1 mg/kg, IG via gavage measured after 7 days by ELISA relative to control. More on the design: scale not given: the % may be the effect or the level left. To be noted: time 7 day. The format is functional.

Series [9] concerns Mus musculus. In words: Antiinflammatory activity against DSS-induced C57BL/6 mouse model of acute ulcerative colitis assessed as inhibition ratio of IL-23 protein expression at 3 mg/kg, IG via gavage measured after 7 days by ELISA relative to control. In kind it is functional. The arrangement: scale not given: the % may be the effect or the level left. To be noted: time 7 day.

Series [10] relates to Mus musculus. Nature of the series: Antiinflammatory activity against DSS-induced C57BL/6 mouse model of acute ulcerative colitis assessed as inhibition ratio of IL-1beta mRNA expression in colon tissue at 10 mg/kg, IG via gavage measured after 7 days by RT-qPCR analysis relative to control. In kind it is functional. More on the design: scale not given: the % may be the effect or the level left. To be noted: time 7 day. (Quantitative PCR measures a nucleic acid by following its amplification.)

Series [11] concerns Mus musculus. In words: Antiinflammatory activity against DSS-induced C57BL/6 mouse model of acute ulcerative colitis assessed as inhibition ratio of TNF-alpha mRNA expression in colon tissue at 1 mg/kg, IG via gavage measured after 7 days by RT-qPCR analysis relative to control. The format is functional. The arrangement: scale not given: the % may be the effect or the level left. To be noted: time 7 day.

Series [12] has as its system Mus musculus. Nature of the series: Antiinflammatory activity against DSS-induced C57BL/6 mouse model of acute ulcerative colitis assessed as inhibition ratio of TNF-alpha mRNA expression in colon tissue at 10 mg/kg, IG via gavage measured after 7 days by RT-qPCR analysis relative to control. In kind it is functional. The arrangement: scale not given: the % may be the effect or the level left. To be noted: time 7 day.

Series [13] concerns Mus musculus. Nature of the series: Antiinflammatory activity against DSS-induced C57BL/6 mouse model of acute ulcerative colitis assessed as inhibition ratio of IL-23 mRNA expression in colon tissue at 10 mg/kg, IG via gavage measured after 7 days by RT-qPCR analysis relative to control. In kind it is functional. To be noted: time 7 day. More on the design: scale not given: the % may be the effect or the level left.

In series [14] the test system is Mus musculus. In words: Anti-ulcerative colitis activity in IL-10-/- C57BL/6 mouse model of ulcerative colitis assessed as body weight recovery ratio at 3 mg/kg, IG via gavage for 8 weeks and measured everyday relative to control. In kind it is functional.
In series [15] the test system is Mus musculus. Nature of the series: Antiinflammatory activity against IL-10-/- C57BL/6 mouse model of ulcerative colitis assessed as inhibition ratio of IL-6 protein expression at 3 mg/kg, IG via gavage and measured after 8 weeks by ELISA relative to control. In kind it is functional. More on the design: scale not given: the % may be the effect or the level left.

Series [16] relates to Mus musculus. Nature of the series: Inhibition of MKK3-p38 MAPK-elF4E signaling pathway in C57BL/6 mouse model of acute ulcerative colitis assessed as decrease in DSS-induced MKK3 phosphorylation in colon tissue administered intragastrically via gavage measured after 7 days by Western blot analysis. To be noted: dose 1-50 mg/kg, time 7.0 day, DDE = dose-dependent effect.
Series [17] concerns Mus musculus. In words: Inhibition of MKK3-p38 MAPK-elF4E signaling pathway in C57BL/6 mouse model of acute ulcerative colitis assessed as decrease in DSS-induced p38 MAPK phosphorylation in colon tissue administered intragastrically via gavage measured after 7 days by Western blot analysis. To be noted: dose 1-50 mg/kg, time 7.0 day, DDE = dose-dependent effect.
For series [18], the target named is T1, Mitogen-activated protein kinase kinase kinase 7 (Homo sapiens) (UniProt O43318).
T1 sequence (whole entry): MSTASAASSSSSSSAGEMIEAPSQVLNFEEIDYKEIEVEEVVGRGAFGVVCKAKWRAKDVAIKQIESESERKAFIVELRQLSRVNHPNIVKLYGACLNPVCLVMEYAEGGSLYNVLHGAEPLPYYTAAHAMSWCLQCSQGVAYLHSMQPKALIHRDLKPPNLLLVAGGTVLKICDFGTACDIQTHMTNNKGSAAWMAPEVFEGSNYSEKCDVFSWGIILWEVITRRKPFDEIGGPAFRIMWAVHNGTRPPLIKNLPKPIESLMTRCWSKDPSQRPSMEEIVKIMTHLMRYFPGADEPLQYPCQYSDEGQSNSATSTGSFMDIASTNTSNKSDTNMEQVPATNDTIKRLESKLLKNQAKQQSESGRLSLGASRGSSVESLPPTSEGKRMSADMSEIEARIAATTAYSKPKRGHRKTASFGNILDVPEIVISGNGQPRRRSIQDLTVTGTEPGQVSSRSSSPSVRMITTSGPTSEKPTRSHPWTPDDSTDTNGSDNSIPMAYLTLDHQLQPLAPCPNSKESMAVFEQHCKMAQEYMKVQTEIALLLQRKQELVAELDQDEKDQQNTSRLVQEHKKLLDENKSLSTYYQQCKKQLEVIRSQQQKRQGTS
In words: Inhibition of human TAK1 at 50 uM using casein as substrate incubated for 40 mins in presence of [gamma-33P]-ATP by scintillation counting method relative to control.

Series [19] can be described thus: Toxicity in C57 mouse assessed as spleen damage at 50 to 500 mg/kg, po administered daily for 14 days. In kind it is organism-based. To be noted: in vivo, 336 h, dose 50-500 mg/kg, time 14 day.
Series [20] can be described thus: Toxicity in C57 mouse assessed as lung damage at 50 to 500 mg/kg, po administered daily for 14 days. To be noted: in vivo, 336 h, dose 50-500 mg/kg, time 14 day. In kind it is organism-based.
Series [21] concerns Mus musculus. Nature of the series: Anti-ulcerative colitis activity against DSS-induced ulcerative colitis C57BL/6 mouse model assessed as reduction in DAI score at 10 mg/kg, IG via gavage administered for 7 days and measured everyday (reference value: 4.0). To be noted: time 7 day. In kind it is functional.
Series [22] deals with Mus musculus. In words: Antiinflammatory activity against DSS-induced C57BL/6 mouse model of acute ulcerative colitis assessed as inhibition of IL-6 mRNA expression in colon tissue administered intragastrically via gavage measured after 7 days by RT-qPCR analysis. The format is functional, organism-based. To be noted: route ig, time 7.0 day, DDE = dose-dependent effect.
In series [23] the test system is Mus musculus. Nature of the series: Antiinflammatory activity against IL-10-/- C57BL/6 mouse model of acute ulcerative colitis assessed as decrease in serum IL-6 levels administered intragastrically via gavage measured after 8 weeks by ELISA. The format is functional, organism-based. To be noted: dose 3-10 mg/kg, route ig, DDE = dose-dependent effect.

Take `COc1ccc([C@H]2CC(=O)c3cc(OC)cc(OC)c32)cc1`: in [1], the CLH turned out to be 46 mL/min/g. Moreover, the apparent permeability (Papp) in the series with P-gp (human) turned out to be 23.3 ×10⁻⁶ cm/s. In addition, in series [2], the mean residence time (MRT inf) was determined as 7.32 h. In [3], this compound had an exposure (AUC) of 16991 ng·h/mL. Also, the Activity with Mus musculus [4] was 52.4%; in the series on Mus musculus [5], “Dde”; in the series with Mus musculus [6] it was 51.5%; with Mus musculus [7], 58.1%; in the series on Mus musculus [8], 40.4%; with Mus musculus [9], 51.6%. Further, the Activity with Mus musculus [10] amounted to 95.6%; in the series on Mus musculus [11], 68.6%; in the series on Mus musculus [12] it was 78.5%; in the series with Mus musculus [13] it was 90.5%; in the series with Mus musculus [14], 14.8%; with Mus musculus [15] it was 44.5%. For the same compound, the Activity entry in series [19] is “Non-Toxic”; in series [20], “Non-Toxic”; with Mus musculus [21], 2.2; with Mus musculus [22], “Dde”; in the series with Mus musculus [23], “Dde”. Also, the results for the inhibition entry (with Mus musculus [16]; in the series with Mus musculus [17]; in series [18]) were “Dde”, “Dde” and under 10%, respectively.

Usually Papp stands for the rate of passage across a membrane or cell layer, normalised by area and donor concentration. One may read the MRT inf as the average time that molecules of a dose stay in the body. For orientation: AUC means the area under the concentration-time curve, a measure of exposure. One may read the inhibition as the share of the control response that was lost under treatment.
